Experimental data taken from ChEMBL document CHEMBL1133394, “Novel C-ring analogues of 20(S)-camptothecin. Part 3: synthesis and their in vitro cytotoxicity of A-, B- and C-ring analogues” (Bioorg Med Chem Lett, 2000).

How the values were obtained:
NCI-H23 [1] = test: (§1) The compound (90 mg/kg) administered intravenously was tested for antitumor activity against NCI-H23 (lung) xenograft model in mice; assay type: functional, Mus musculus
ACHN [2] = test: Tested in vitro for cytotoxicity against human tumor cell line ACHN (renal).; assay type: functional
Mus musculus [3] = test: The compound (200 mg/kg) administered intravenously was tested for antitumor activity against DU-145 (prostate) xenograft model in mice; assay type: functional, Prostate gland
DU-145 [4] = test: Tested in vitro for cytotoxicity against human tumor cell line DU-145 (prostate); assay type: functional
NCI-H23 [5] = test: (§2) The compound (134 mg/kg) administered intravenously was tested for antitumor activity against NCI-H23 (lung) xenograft model in mice; assay type: functional, Mus musculus
OVCAR-8 = test: Tested in vitro for cytotoxicity against human tumor cell line OVCAR8 (ovarian).; assay type: functional
NCI-H23 [6] = test: (§3) The compound (200 mg/kg) administered intravenously was tested for antitumor activity against NCI-H23 (lung) xenograft model in mice; assay type: functional, Mus musculus
Mus musculus [7] = test: The compound (134 mg/kg) administered intravenously was tested for antitumor activity against A-498 (renal) xenograft model in mice; assay type: functional
UACC-62 = test: Tested in vitro for cytotoxicity against human tumor cell line UACC 62 (melanoma); assay type: functional
Mus musculus [8] = test: The compound (90 mg/kg) administered intravenously was tested for antitumor activity against DU-145 (prostate) xenograft model in mice; assay type: functional, Prostate gland
Mus musculus [9] = test: The compound (134 mg/kg) administered intravenously was tested for antitumor activity against DU-145 (prostate) xenograft model in mice; assay type: functional, Prostate gland
HOP-62 = test: Tested in vitro for cytotoxicity against human tumor cell line HOP62 (lung); assay type: functional
SF-268 = test: Tested in vitro for cytotoxicity against human tumor cell line SF-268 (CNS).; assay type: functional
Mus musculus [10] = test: The compound (90 mg/kg) administered intravenously was tested for antitumor activity against A-498 (renal) xenograft model in mice; assay type: functional
NCI/ADR-RES = test: Tested in vitro for cytotoxicity against human tumor cell line MCF-7/ADR (breast); assay type: functional
Mus musculus [11] = test: The compound (200 mg/kg) administered intravenously was tested for antitumor activity against A-498 (renal) xenograft model in mice; assay type: functional
[12] = test system: Panel (56 tumour cell lines); test: Tested in vitro for cytotoxicity against 56 human tumor cell lines; assay type: functional, cell-based
ACHN [13] = test: The compound was tested in vitro for cytotoxicity against human tumor cell line ACHN (renal).; assay type: functional
DU-145 [14] = test: The compound was tested in vitro for cytotoxicity against human tumor cell line DU-145 (prostate); assay type: functional
Mus musculus [15] = test: The compound (5 mg/kg) administered intravenously was tested for antitumor activity against A-498 (renal) xenograft model in mice; assay type: functional
NCI-H23 [16] = test: The compound (10 mg/kg) administered intravenously was tested for antitumor activity against NCI-H23 (lung) xenograft model in mice; assay type: functional, Mus musculus
Mus musculus [17] = test: The compound (2.5 mg/kg) administered intravenously was tested for antitumor activity against DU-145 (prostate) xenograft model in mice; assay type: functional, Prostate gland
Mus musculus [18] = test: The compound (10 mg/kg) administered intravenously was tested for antitumor activity against DU-145 (prostate) xenograft model in mice; assay type: functional, Prostate gland
Mus musculus [19] = test: The compound (2.5 mg/kg) administered intravenously was tested for antitumor activity against A-498 (renal) xenograft model in mice; assay type: functional
Mus musculus [20] = test: The compound (5 mg/kg) administered intravenously was tested for antitumor activity against DU-145 (prostate) xenograft model in mice; assay type: functional, Prostate gland
NCI-H23 [21] = test: The compound (5 mg/kg) administered intravenously was tested for antitumor activity against NCI-H23 (lung) xenograft model in mice; assay type: functional, Mus musculus
Mus musculus [22] = test: The compound (10 mg/kg) administered intravenously was tested for antitumor activity against A-498 (renal) xenograft model in mice; assay type: functional
NCI-H23 [23] = test: The compound (2.5 mg/kg) administered intravenously was tested for antitumor activity against NCI-H23 (lung) xenograft model in mice; assay type: functional, Mus musculus
Mus musculus [24] = test: as §1; assay type: functional
Mus musculus [25] = test: as §3; assay type: functional
Mus musculus [26] = test: as §2; assay type: functional

| Compound | GI50 (ACHN [2]) | GI50 (DU-145 [4]) | GI50 (OVCAR-8) | GI50 (UACC-62) | GI50 (HOP-62) | GI50 (SF-268) | GI50 (NCI/ADR-RES) | IC50 [12] | other results |
| --- | --- | --- | --- | --- | --- | --- | --- | --- | --- |
| CC[C@@]1(O)C(=O)OCc2c1cc1n(c2=O)C(OCC(F)(F)F)c2cc3cc(O)ccc3nc2-1 (some centres undefined) | 100 nM | 100 nM | 260 nM | 100 nM | 60 nM | 30 nM | 200 nM |  | T-C/C (NCI-H23 [1]): 12%; T-C/C (Mus musculus [3]): 21%; T-C/C (NCI-H23 [5]): 58%; T-C/C (NCI-H23 [6]): 58%; T-C/C (Mus musculus [7]): 46%; T-C/C (Mus musculus [8]): 8%; T-C/C (Mus musculus [9]): 4%; T-C/C (Mus musculus [10]): 46%; T-C/C (Mus musculus [11]): 27% |
| CCOC1c2cc3cccc([N+](=O)[O-])c3nc2-c2cc3c(c(=O)n21)COC(=O)[C@]3(O)CC (some centres undefined) |  |  |  |  |  |  |  | > 30000 nM |  |
| CCc1c2c(nc3cccc(OC)c13)-c1cc3c(c(=O)n1C2OCC(F)(F)F)COC(=O)[C@]3(O)CC (some centres undefined) | 2830 nM | 3900 nM | 2630 nM | 4680 nM | 1580 nM | 2130 nM | 1840 nM |  |  |
| CC[C@@]1(O)C(=O)OCc2c1cc1n(c2=O)C(OCCOC)c2cc3cc(O)ccc3nc2-1 (some centres undefined) | 1200 nM | 680 nM | 4500 nM | 520 nM | 4000 nM | 5000 nM | < 10 nM |  |  |
| CC[C@@]1(O)C(=O)OCc2c1cc1n(c2=O)C(OCCOC)c2cc3c([N+](=O)[O-])cccc3nc2-1 (some centres undefined) |  |  | 970 nM | 470 nM | 400 nM | 1000 nM |  |  | GI50 (ACHN [13]): 430 nM; GI50 (DU-145 [14]): 440 nM |
| CCc1c2c(nc3cccc(OC)c13)-c1cc3c(c(=O)n1C2OCCF)COC(=O)[C@]3(O)CC (some centres undefined) | 1060 nM | 790 nM | 1920 nM | 2020 nM | 1220 nM | 1890 nM | 1990 nM |  |  |
| CCc1c2c(nc3cccc(OC)c13)-c1cc3c(c(=O)n1C2OCCOC)COC(=O)[C@]3(O)CC (some centres undefined) | 520 nM | 1140 nM | 850 nM | 2540 nM | 660 nM | 590 nM | 510 nM |  |  |
| CCc1c2c(nc3ccc(O)cc13)-c1cc3c(c(=O)n1C2OCCOC)COC(=O)[C@]3(O)CC (some centres undefined) | 600 nM | 550 nM | 100 nM | 600 nM | 20000 nM | > 30000 nM | 200 nM |  |  |
| CCc1c2c(nc3cccc(OC)c13)-c1cc3c(c(=O)n1C2OCCO)COC(=O)[C@]3(O)CC (some centres undefined) | 3820 nM | 5020 nM | 8400 nM |  | 6470 nM | 1100 nM | 5530 nM |  |  |
| CC[C@@]1(O)C(=O)OCc2c1cc1n(c2=O)Cc2cc3c(CN(C)C)c(O)ccc3nc2-1 [TOPOTECAN] | 40 nM | 40 nM | 200 nM | 30 nM | 50 nM | 80 nM | 70 nM | 160 nM | T-C/C (Mus musculus [15]): 67%; T-C/C (NCI-H23 [16]): 60%; T-C/C (Mus musculus [17]): 83%; T-C/C (Mus musculus [18]): 339%; T-C/C (Mus musculus [19]): 11%; T-C/C (Mus musculus [20]): 35%; T-C/C (NCI-H23 [21]): 6%; T-C/C (Mus musculus [22]): 47%; T-C/C (NCI-H23 [23]): 10% |
| CC[C@@]1(O)C(=O)OCc2c1cc1n(c2=O)C(OCCO)c2cc3cc(O)ccc3nc2-1 (some centres undefined) | 3400 nM | 3260 nM | 2520 nM | 2120 nM | 2440 nM | 2100 nM |  |  |  |
| CC[C@@]1(O)C(=O)OCc2c1cc1n(c2=O)C(OCCF)c2cc3c([N+](=O)[O-])cccc3nc2-1 (some centres undefined) | 250 nM | 630 nM | 740 nM | 400 nM | 360 nM | 310 nM | 200 nM |  |  |
| CCc1c2c(nc3ccc(O)cc13)-c1cc3c(c(=O)n1C2OCCF)COC(=O)[C@]3(O)CC (some centres undefined) | 8000 nM | 1000 nM | 500 nM | 1000 nM | 25000 nM | > 30000 nM | 100 nM |  |  |
| CCOC1c2c(nc3cccc(OC)c3c2CC)-c2cc3c(c(=O)n21)COC(=O)[C@]3(O)CC (some centres undefined) |  |  |  |  |  |  |  | 5370 nM |  |
| CC[C@@]1(O)C(=O)OCc2c1cc1n(c2=O)Cc2cc3ccccc3nc2-1 [CAMPTOTHECIN] |  |  |  |  |  |  |  | 40 nM |  |
| CCOC1c2cc3c([N+](=O)[O-])cccc3nc2-c2cc3c(c(=O)n21)COC(=O)[C@]3(O)CC (some centres undefined) |  |  |  |  |  |  |  | 27500 nM |  |
| CC[C@@]1(O)C(=O)OCc2c1cc1n(c2=O)C(OCC(F)(F)F)c2cc3c([N+](=O)[O-])cccc3nc2-1 (some centres undefined) | 20 nM | 60 nM | 130 nM | 160 nM | 500 nM | 90 nM | 70 nM |  |  |
| CCOC1c2c(nc3ccc(O)cc3c2CC)-c2cc3c(c(=O)n21)COC(=O)[C@]3(O)CC (some centres undefined) |  |  |  |  |  |  |  | 5000 nM |  |
| CCOC1c2c(nc3cccc(O)c3c2CC)-c2cc3c(c(=O)n21)COC(=O)[C@]3(O)CC (some centres undefined) |  |  |  |  |  |  |  | 4670 nM |  |
| CCOC1c2cc3c(O)cccc3nc2-c2cc3c(c(=O)n21)COC(=O)[C@]3(O)CC (some centres undefined) |  |  |  |  |  |  |  | 200 nM | T-C/C (Mus musculus [3]): 33%; T-C/C (Mus musculus [24]): 8%; T-C/C (Mus musculus [7]): 8%; T-C/C (Mus musculus [25]): 12%; T-C/C (Mus musculus [26]): 15%; T-C/C (Mus musculus [8]): 9%; T-C/C (Mus musculus [9]): 27%; T-C/C (Mus musculus [10]): 23%; T-C/C (Mus musculus [11]): 6% |
| CCOC1c2cc3cc(O)ccc3nc2-c2cc3c(c(=O)n21)COC(=O)[C@]3(O)CC (some centres undefined) |  |  |  |  |  |  |  | 2880 nM |  |
| CC[C@@]1(O)C(=O)OCc2c1cc1n(c2=O)C(OCCF)c2cc3cc(O)ccc3nc2-1 (some centres undefined) | 500 nM | 250 nM | 4500 nM | 10000 nM | 10000 nM | 20000 nM | 4000 nM |  |  |
| CC[C@@]1(O)C(=O)OCc2c1cc1n(c2=O)C(OCCO)c2cc3c([N+](=O)[O-])cccc3nc2-1 (some centres undefined) | 3360 nM | 4130 nM | 7140 nM | 2460 nM | 2450 nM | 4660 nM |  |  |  |
| CCc1c2c(nc3ccc(O)cc13)-c1cc3c(c(=O)n1C2OCC(F)(F)F)COC(=O)[C@]3(O)CC (some centres undefined) | 400 nM | 1000 nM | 500 nM | 70 nM | 2000 nM | 2000 nM | 400 nM |  |  |
